Legend:
human KCNQ4 = target: T1, human KCNQ4 (Homo sapiens, UniProt P56696); assay: KCNQ4 thallium influx FLIPR TETRA assay; assay type: cell-based; conditions: for EC50: HEK293 cells stably expressing human KCNQ4, Tl+ influx; for Emax: maximum response relative to 10 μM retigabine (=100%), read-out: KCNQ4 Max. %
T1 construct: expressed in transfected cells; host or cells: HEK293
Protocol: (§1) The following example describes the assay that may be used to identify compounds that activate KCNQ4 or KCNQ5 channels.
(§2) The assays were performed using a FLIPR^TETRA (Molecular Devices, Sunnyvale, Calif.) in 384-well format. HEK293 cells stably expressing human KCNQ4 or KCNQ5 were seeded in 384-well, black-walled, clear-bottomed, poly-D-lysine coated plates (Greiner Bio-One, Germany) at a density of 1.5×10^4 cells per well, 24 hours before the assay. On the assay day, BTC-AM dye was loaded into the cells by replacing the cell culture medium with 30 μL/well of 2.8 μM dye in DPBS. Dye loading was allowed to proceed for 2 hours at room temperature and then cells were washed once in 30 μL/well of assay buffer (in mM: 10 HEPES pH 7.3, 5 glucose, 140 Na-gluconate, 2.5 K-gluconate, 3.6 Ca-gluconate, 2 MgSO4, 0.1 Ouabain) to remove unloaded dye. Cells were incubated in 30 μL of assay buffer before loading onto a FLIPR^TETRA system. Compounds to be assayed were added to the cells as 4× of final concentration in 15 μL of assay buffer and incubated for 4 minutes at room temperature. The influx signal was initiated by adding 15 μL of assay buffer containing 4.2 mM TlNO3 and 7 mM K2SO4. Tl^+ influx signals were recorded for 3 minutes. Tl^+ influx signal was quantified as light unit changes after Tl^+ addition using the “SUM” statistic from the FLIPR^TETRA software. Sums of the responses over basal responses were plotted versus concentrations of test compounds to obtain an EC50 value and the points fit with a nonlinear regression curve using GraphPad Prism software (GraphPad Software Inc., San Diego, Calif.). EC50 values were calculated from the resulting sigmoidal dose-response curves. The maximum response for each test compound was determined relative to the response produced by 10 μM retigabine. The maximum response of retigabine at 10 μM was set at 100%.

human KCNQ5 = target: T2, human KCNQ5 (Homo sapiens, UniProt Q9NR82); assay: KCNQ5 thallium influx FLIPR TETRA assay; assay type: cell-based; conditions: for EC50: HEK293 cells stably expressing human KCNQ5, Tl+ influx; for Emax: maximum response relative to 10 μM retigabine (=100%), read-out: KCNQ5 Max. %
T2 construct: expressed in transfected cells; host or cells: HEK293
Protocol: as §1, §2

[1] = target: T3, human KCNQ2 and KCNQ3 subunits (KCNQ2/3 channels) (Homo sapiens, UniProt O43525+O43526); assay: KCNQ2/3 thallium influx FLIPR assay (BTC-AM dye); assay type: cell-based; conditions: for EC50: HEK293 cells stably expressing human KCNQ2 and KCNQ3, Tl+ influx; for Emax: maximum response relative to 10 μM retigabine (=100%), read-out: KCNQ2/3 Max. %
T3 construct: expressed in transfected cells; host or cells: HEK293
Protocol: The following example describes the assay that may be used to identify compounds that activate KCNQ2/3 channels.
HEK293 cells stably expressing human KCNQ2 and KCNQ3 subunits were seeded in 96-well, black-walled, clear-bottomed, poly-D-lysine coated plates (BD Biosciences, Bedford, Mass.) at a density of 1×10^5 cells per well 24 hours before the assay. On the assay day, BTC-AM dye (Invitrogen, Carlsbad, Calif.) was loaded into the cells by replacing the cell culture medium with 55 μL/well of 3 μg/ml dye in Dulbecco's Phosphate Buffered Saline (DPBS) (Invitrogen). Dye loading was allowed to proceed for 2 hours at room temperature and then cells were washed twice with 50 μL/well of assay buffer (in mM: 10 HEPES pH 7.3, 5 glucose, 140 Na-gluconate, 2.5 K-gluconate, 3.6 Ca-gluconate, 2 MgSO4, 0.1 Ouabain) to remove unloaded dye. Cells were incubated in 50 μL of assay buffer before loading onto a FLIPR system (Molecular Devices, Sunnyvale, Calif.). Various concentrations of compounds to be assayed were added to the cells in 50 μL of assay buffer and incubated for 4 minutes. The fluorescence signal was initiated by adding 100 μL of assay buffer containing 6 mM TlNO3 and 10 mM K2SO4. Fluors were excited using the 488-nm line of an argon laser and emission was filtered using a 540±30 nm bandpass filter. Fluorescent signals were recorded for 3 minutes. Sums of the responses over basal responses were plotted versus concentrations of test compounds to obtain an EC50 value and the points fit with a nonlinear regression curve using GraphPad Prism software (GraphPad Software Inc., San Diego, Calif.). EC50 values were calculated from the resulting sigmoidal dose-response curves. The maximum response for each test compound was determined relative to the response produced by 10 μM retigabine. The maximum response of retigabine at 10 μM was set at 100%.

[2] = test system: capsaicin-induced secondary mechanical hyperalgesia; assay: Capsaicin-induced secondary mechanical hypersensitivity; assay type: in vivo, Sprague-Dawley rats; conditions: rat, about 30 mg/kg i.p., 30 min before testing, 180 min after capsaicin
From the text: (§3) Adult male Sprague-Dawley rats (250-300 g body weight, Charles River Laboratories, Portage, Mich.) were used. Animal handling and experimental protocols were approved by the Institutional Animal Care and Use Committee (IACUC) at Abbott Laboratories. For all surgical procedures, animals were maintained under isoflurane anesthesia (4-5% to induce, 1-3% to maintain), and the incision sites were sterilized using a 10% povidone-iodine solution prior to and after surgeries.
Rats were allowed to acclimate to the study room for 1 hour. They were then briefly restrained, and capsaicin was administered at 10 μg in 10 μl of vehicle (10% ethanol and 2-hydroxypropyl cyclodextrin) by intraplantar injection into the center of the right hind paw. Secondary mechanical hyperalgesia was measured at the heel away from the site of injection at 180 min following capsaicin (Joshi et al 2006, Neuroscience 143, 587-596). Compounds were injected (i.p.) 30 min before testing (150 min post-capsaicin).
(§4) Tactile (mechanical) allodynia was measured using calibrated von Frey filaments (Stoelting, Wood Dale, Ill.) as described in Chaplan, S. R., F. W. Bach, J. M. Pogrel, J. M. Chung and T. L. Yaksh, 1994, Quantitative assessment of tactile allodynia in the rat paw, J. Neurosci. Methods, 53, 55. Rats were placed into inverted individual plastic containers (20×12.5×20 cm) on top of a suspended wire mesh grid, and acclimated to the test chambers for 20 minutes. […] A 50% withdrawal threshold was determined using an up-down procedure (Dixon, W. J., 1980, Efficient analysis of experimental observations, Ann. Rev. Pharmacol. Toxicol., 20, 441). […] Tactile allodynia thresholds were also assessed in several control groups, including naive, sham-operated, and saline infused animals as well as in the contralateral paws of nerve-injured rats. To evaluate the anti-nociceptive effects, animals were administered vehicle or test compound and tactile allodynia was assessed 30 minutes after i.p. administration.
Tactile allodynia was measured as described above.

[3] = test system: chronic constriction injury-induced neuropathic pain; assay: Chronic constriction injury (CCI) model of neuropathic pain (Bennett model); assay type: in vivo, Sprague-Dawley rats; conditions: rat CCI model, about 30 mg/kg i.p., 30 minutes or more before testing
From the text: as §3
as §4, with “55.” for “55. Rats were placed into inverted individual plastic containers (20×12.5×20 cm) on top of a suspended wire mesh grid, and acclimated to the test chambers for 20 minutes.”, “administration. […]” for “administration.”

[4] = test system: spinal nerve ligation-induced neuropathic pain; assay: Spinal nerve ligation (SNL) model of neuropathic pain; assay type: in vivo, Sprague-Dawley rats; conditions: rat SNL model, about 30 mg/kg i.p., 30 minutes or more before testing
From the text: as §3
as §4, with “55.” for “55. Rats were placed into inverted individual plastic containers (20×12.5×20 cm) on top of a suspended wire mesh grid, and acclimated to the test chambers for 20 minutes.”, “administration. […]” for “administration.”

| EC50 (human KCNQ4) | Emax (human KCNQ4) | EC50 (human KCNQ5) | Emax (human KCNQ5) | EC50 [1] | Emax [1] | SMILES | change in paw withdrawal latency versus vehicle (tactile allodynia) [2] | change in paw withdrawal latency versus vehicle (mechanical allodynia) [3] | change in paw withdrawal latency versus vehicle (tactile allodynia) [4] |
| --- | --- | --- | --- | --- | --- | --- | --- | --- | --- |
| > 30 µM | 22% | > 30 µM | 294% | 0.1 to 0.5 µM | 109% | CCc1nc2ccccc2c(=O)n1NC(=O)C[C@@H]1CC[C@H]2C[C@@H]1C2(C)C [Example 2, 2-[(1S,2S,5S)-6,6-dimethylbicyclo[3.1.1]hept-2-yl]-N-(2-ethyl-4-oxoquinazolin-3(4H)-yl)acetamide] | statistically significant change in paw withdrawal latency versus vehicle | – | – |
| > 30 µM | 22% | > 30 µM | 164% | < 0.1 µM | 103% | CC(C)c1nc2ccccc2c(=O)n1NC(=O)C[C@@H]1CC[C@H]2C[C@@H]1C2(C)C [Example 1, 2-[(1S,2S,5S)-6,6-dimethylbicyclo[3.1.1]hept-2-yl]-N-[4-oxo-2-(propan-2-yl)quinazolin-3(4H)-yl]acetamide] | statistically significant change in paw withdrawal latency versus vehicle | statistically significant change in paw withdrawal latency versus vehicle | statistically significant change in paw withdrawal latency versus vehicle |
| > 30 µM | 21% | > 30 µM | 210% | 0.1 to 0.5 µM | 149% | CC1(C)[C@H]2CC[C@@H](CC(=O)Nn3c(C4CC4)nc4sccc4c3=O)[C@@H]1C2 [Example 15, N-(2-cyclopropyl-4-oxothieno[2,3-d]pyrimidin-3(4H)-yl)-2-[(1S,2S,5S)-6,6-dimethylbicyclo[3.1.1]hept-2-yl]acetamide] | – | – | statistically significant change in paw withdrawal latency versus vehicle |
| 1 to 10 µM | 46% | > 30 µM | 10% | 0.1 to 0.5 µM | 111% | CC(C)c1nc2sccc2c(=O)n1NC(=O)C[C@@H]1CC[C@H]2C[C@@H]1C2(C)C [Example 20, 2-[(1S,2S,5S)-6,6-dimethylbicyclo[3.1.1]hept-2-yl]-N-[4-oxo-2-(propan-2-yl)thieno[2,3-d]pyrimidin-3(4H)-yl]acetamide] | – | – | – |
| 1 to 10 µM | 255% | 1 to 10 µM | 857% | < 0.1 µM | 179% | CC(C)c1nc2ccccc2c(=O)n1NC(=O)CC1CC2CC1C2 (racemic) [Example 22, (±)-2-(bicyclo[2.1.1]hex-2-yl)-N-[4-oxo-2-(propan-2-yl)quinazolin-3(4H)-yl]acetamide] | – | – | – |
| > 30 µM | 57% | > 30 µM | 52% | 0.5 to 1 µM | 132% | CC(C)c1nc2ccccc2c(=O)n1NC(=O)COC[C@@H]1CC[C@H]2C[C@@H]1C2(C)C [Example 8, 2-[(1S,2R,5S)-(6,6-dimethylbicyclo[3.1.1]hept-2-yl)methoxy]-N-[4-oxo-2-(propan-2-yl)quinazolin-3(4H)-yl]acetamide] | – | – | – |
| 0.5 to 1 µM | 25% | > 30 µM | 14% | 0.5 to 1 µM | 121% | CC(C)c1nc2ccccc2c(=O)n1NC(=O)C[C@H]1CC[C@H]2C[C@@H]1C2(C)C [Example 21, 2-[(1S,2R,5S)-6,6-dimethylbicyclo[3.1.1]hept-2-yl]-N-[4-oxo-2-(propan-2-yl)quinazolin-3(4H)-yl]acetamide] | – | – | – |
| > 30 µM | 6% | > 30 µM | 50% | < 0.1 µM | 93% | CC1(C)[C@H]2CC[C@@H](CC(=O)Nn3c(C4CC4)nc4ccccc4c3=O)[C@@H]1C2 [Example 5, N-(2-cyclopropyl-4-oxoquinazolin-3(4H)-yl)-2-[(1S,2S,5S)-6,6-dimethylbicyclo[3.1.1]hept-2-yl]acetamide] | statistically significant change in paw withdrawal latency versus vehicle | – | – |
| > 30 µM | 6% | > 30 µM | 13% | 1 to 10 µM | 144% | CC1(C)[C@H]2CC[C@@H](CC(=O)Nn3cnc4ccccc4c3=O)[C@@H]1C2 [Example 16, 2-[(1S,2S,5S)-6,6-dimethylbicyclo[3.1.1]hept-2-yl]-N-(4-oxoquinazolin-3(4H)-yl)acetamide] | – | – | – |

— US8609674B2, “Potassium channel modulators” (AbbVie Inc., priority 2010, dated 2013)
